Patent EP0140848A1, “A pharmaceutical composition containing azo-bis-salicylic acid or a salt thereof, and a method for the treatment of inflammatory conditions in the intestines” (priority 1983, dated 1985)

What was measured:
[1] = Toxicity (general statement, no method described); conditions: no data or method given
tuberculosis = conditions: according to Ind. J. Med. Res. 40 (1952), p. 4-5, and Ind. J. Pharm. 13 (1951), p. 3-5; cited from earlier work

CC(=O)Nc1ccc(C(=O)O)c(O)c1 [Ac-PAS, N-acetyl-p-aminosalicylic acid]
toxicity [1]: remarkably low

Nc1ccc(C(=O)O)c(O)c1 [PAS, 4-aminosalicylic acid, reference compound]
toxicity [1]: remarkably low

O=C(O)c1ccc(N=Nc2ccc(C(=O)O)c(O)c2)cc1O [4,4'-azo-bis-salicylic acid]
toxicity [1]: remarkably low
activity against tuberculosis (tuberculosis): inactive
